Experimental data as given in patent US20260234208A1, “METHOD FOR PRODUCING A KERATIN POWDER FROM FEATHERS OF ANIMAL ORIGIN, COLLOIDAL SOLUTION AND KERATIN POWDER FOR TOPICAL APPLICATION CONTAINING KERATIN PARTICLES, AND USE OF THE COLLOIDAL SOLUTION AND THE KERATIN POWDER” (RIGI THERAPEUTICS AG, priority 2023, published 2026).

Assay: Water release in climate chamber
Assay type: physicochemical
Conditions: room temperature, humidity 50%
Experimental: When urea was added, up to a ratio of 5% keratin to 95% urea, the maximum was reached increasingly later, in the maximum case only after 15 days. In this case, the water absorption capacity was 197%. (FIG. 13). The water release was determined at room temperature and a humidity of 50%. […] For the mixtures of keratin and urea in the ratios 25:75 and 10:[…], a water content of 25% was still observed even after 4 days (FIG. 14).

For NC(N)=O [urea], the “Time to complete water release” value was 4 days and the “Water release within the first 24 hours” value was “around 170%”.
